pEC50: −log10 of the molar value.

Consider 30 compounds from patent publication US20080221161A1, “HETEROCYCLIC MODULATORS OF TGR5 FOR TREATMENT OF DISEASE” (KALYPSYS, INC., priority 2007, published 2008).

In one assay the target is T1, human TGR5 (Homo sapiens, UniProt Q8TDU6).
T1 construct: expressed in transfected cells; host or cells: HEK-293 cells, stably transfected (pcDNA 3.1, Fugene6, geneticin selection)
T1 sequence (Q8TDU6 1-330): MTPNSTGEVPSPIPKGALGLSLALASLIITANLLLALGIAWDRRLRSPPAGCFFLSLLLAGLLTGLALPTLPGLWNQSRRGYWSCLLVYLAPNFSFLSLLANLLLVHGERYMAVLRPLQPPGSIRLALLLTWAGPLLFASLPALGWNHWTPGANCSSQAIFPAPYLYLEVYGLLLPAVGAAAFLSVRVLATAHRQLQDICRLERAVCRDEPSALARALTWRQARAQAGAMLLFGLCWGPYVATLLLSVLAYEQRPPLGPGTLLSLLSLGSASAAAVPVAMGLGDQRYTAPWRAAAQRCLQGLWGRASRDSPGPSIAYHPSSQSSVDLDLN
The assay can be described thus: cAMP production assay in HEK293-TGR5 cells. The assay is classed as cell-based. To be noted: HEK293 cells stably expressing human TGR5; 30 minutes stimulation; LANCE cAMP TR-FRET; read-out: cAMP Production in 293-TGR5 Cells EC50. For orientation: cAMP levels reflect the balance of adenylyl cyclase and phosphodiesterase activity.
Consider `FC(F)(F)c1ccc(CNCc2cc3ccc(Cl)cc3nc2-c2ccsc2)cc1` [Example 41, 1-(7-Chloro-2-(thiophen-3-yl)quinolin-3-yl)-N-(4-(trifluoromethyl)benzyl)methanamine], for which the pEC50 (commonly the negative decadic logarithm of the EC50, by convention in mol/L) is < 5.00.

Turning to `Cc1cccc2cc(CNCc3ccc(C(F)(F)F)cc3)c(-c3ccsc3)nc12` [Example 5, 1-(8-Methyl-2-(thiophen-3-yl)quinolin-3-yl)-N-(4-(trifluoromethyl)benzyl)methanamine], the negative logarithm of the EC50 (pEC50) is > 5.00.

For `COc1ccc2cc(CN(CCc3ccc(Cl)cc3)C(C)=O)c(-c3ccsc3)nc2c1` [Example 32, N-(4-Chlorophenethyl)-N-((7-methoxy-2-(thiophen-3-yl)quinolin-3-yl)methyl)acetamide], the negative-log EC50 (pEC50) was < 5.00.

As for `COc1ccc2cc(CNCc3ccc(C(F)(F)F)cc3)c(-c3ccncc3)nc2c1` [Example 23, 1-(7-Methoxy-2-(pyridin-4-yl)quinolin-3-yl)-N-(4-(trifluoromethyl)benzyl)methanamine], the negative-log EC50 (pEC50) was > 5.00.

On to `COc1ccc2cc(CNCCOc3cccc4ncccc34)c(-c3ccsc3)nc2c1` [Example 121, N-((7-Methoxy-2-(thiophen-3-yl)quinolin-3-yl)methyl)-2-(quinolin-5-yloxy)ethanamine], for which the negative logarithm of the EC50 (pEC50) was > 5.00.

`Oc1ccc2cc(CCNCCc3ccc(Br)cc3)c(-c3ccsc3)nc2c1` [Example 104, 3-(2-(4-Bromophenethylamino)ethyl)-2-(thiophen-3-yl)quinolin-7-ol]: the pEC50 was < 5.00.

With `COc1cc(OC)c2cc(CNCc3ccc(C(F)(F)F)cc3)c(-c3ccsc3)nc2c1` [Example 53, 1-(5,7-Dimethoxy-2-(thiophen-3-yl)quinolin-3-yl)-N-(4-(trifluoromethyl)benzyl)methanamine], the negative-log EC50 (pEC50) is > 5.00.

In the case of `Oc1ccc2cc(CCNCc3ccc(C(F)(F)F)cc3)c(-c3ccsc3)nc2c1` [Example 107, 2-(Thiophen-3-yl)-3-(2-(4-(trifluoromethyl)benzylamino)ethyl)quinolin-7-ol], the pEC50 is < 5.00.

Turning to `COc1ccc2cc(CNCCc3ccc(Br)cc3)c(-c3cscc3C)nc2c1` [Example 56, 2-(4-Bromophenyl)-N-((7-methoxy-2-(4-methylthiophen-3-yl)quinolin-3-yl)methyl)ethanamine], the negative-log EC50 (pEC50) was < 5.00.

As to `COc1ccc2cc(CNCc3ccc(C(F)(F)F)cc3)c(Oc3cccnc3)nc2c1` [Example 83, 1-(7-methoxy-2-(pyridin-3-yloxy)quinolin-3-yl)-N-(4-(trifluoromethyl)benzyl)methanamine], the negative logarithm of the EC50 (pEC50) was > 5.00.

Consider `COc1ccc2cc(CNCc3ccc(F)cc3F)c(-c3ccncc3)nc2c1` [Example 87, N-(2,4-Difluorobenzyl)-1-(7-methoxy-2-(pyridin-4-yl)quinolin-3-yl)methanamine], for which the negative-log EC50 (pEC50) is > 5.00.

For `Cc1c(CNCCc2ccc(Br)cc2)c(-c2ccsc2)nc2cc(O)ccc12` [Example 120, 3-((4-Bromophenethylamino)methyl)-4-methyl-2-(thiophen-3-yl)quinolin-7-ol], the negative logarithm of the EC50 (pEC50) is < 5.00.

With `COc1ccc2cc(CNCCc3ccc(Cl)cc3)c(-c3nccs3)nc2c1` [Example 31, 2-(4-Chlorophenyl)-N-((7-methoxy-2-(thiazol-2-yl)quinolin-3-yl)methyl)ethanamine], the pEC50 was < 5.00.

In the case of `COc1ccc2cc(CNCc3ccc(C(F)(F)F)cc3)c(-c3nccs3)nc2c1` [Example 30, 1-(7-methoxy-2-(thiazol-2-yl)quinolin-3-yl)-N-(4-(trifluoromethyl)benzyl)methanamine], the pEC50 was < 5.00.

Regarding `COc1ccc2cc(CNCc3cnc(C)cn3)c(-c3ccsc3)nc2c1` [Example 71, 1-(7-Methoxy-2-(thiophen-3-yl)quinolin-3-yl)-N-((5-methylpyrazin-2-yl)methyl)methanamine], the negative-log EC50 (pEC50) was > 5.00.

For the compound `COc1ccc2cc(CNC(=O)c3ccc(C(F)(F)F)cc3)c(-c3ccsc3)nc2c1` [Example 17, N-((7-methoxy-2-(thiophen-3-yl)quinolin-3-yl)methyl)-4-(trifluoromethyl)benzamide], the pEC50 was < 5.00.

In the case of `COc1ccc2cc(CNCCc3ccc(F)cc3)c(-c3cccnc3)nc2c1` [Example 8, 2-(4-Fluorophenyl)-N-((7-methoxy-2-(pyridin-3-yl)quinolin-3-yl)methyl)ethanamine], the negative-log EC50 (pEC50) was > 5.00.

Take `COc1ccc2cc(CN[C@@H](C)c3ccc(Br)cc3)c(-c3ccsc3)nc2c1` [Example 133, (S)-1-(4-Bromophenyl)-N-((7-methoxy-2-(thiophen-3-yl)quinolin-3-yl)methyl)ethanamine]: the pEC50 was > 5.00.

For `O=[N+]([O-])c1ccc2cc(CNCCc3ccc(Br)cc3)c(-c3ccsc3)nc2c1` [Example 127, 2-(4-bromophenyl)-N-((7-nitro-2-(thiophen-3-yl)quinolin-3-yl)methyl)ethanamine], the negative-log EC50 (pEC50) was < 5.00.

Consider `COc1ccc2cc(NCCc3ccc(Br)cc3)c(-c3ccsc3)nc2c1` [Example 116, N-(4-Bromophenethyl)-7-methoxy-2-(thiophen-3-yl)quinolin-3-amine], for which the negative logarithm of the EC50 (pEC50) is > 5.00.

With `COc1ccc2c(C)c(CNCCc3ccc(Br)cc3)c(-c3ccsc3)nc2c1` [Example 129, 2-(4-Bromophenyl)-N-((7-methoxy-4-methyl-2-(thiophen-3-yl)quinolin-3-yl)methyl)ethanamine], the pEC50 is < 5.00.

Take `COc1ccc2cc(CNCc3ccc(Br)cc3)c(-c3ccncc3)nc2c1` [Example 52, N-(4-Bromobenzyl)-1-(7-methoxy-2-(pyridin-4-yl)quinolin-3-yl)methanamine]: the pEC50 was > 5.00.

In the case of `COc1ccc2cc(CNCc3cccnc3)c(-c3ccsc3)nc2c1` [Example 72, 1-(7-Methoxy-2-(thiophen-3-yl)quinolin-3-yl)-N-(pyridin-3-ylmethyl)methanamine], the pEC50 is < 5.00.

On to `C[C@H](NCc1cc2ccc(O)cc2nc1-c1ccsc1)c1ccc(Br)cc1` [Example 135, (S)-3-((1-(4-Bromophenyl)ethylamino)methyl)-2-(thiophen-3-yl)quinolin-7-ol], for which the pEC50 is > 5.00.

For the compound `COc1ccc2cc(CN(C)CCc3ccc(Cl)cc3)c(-c3ccsc3)nc2c1` [Example 35, 2-(4-Chlorophenyl)-N-((7-methoxy-2-(thiophen-3-yl)quinolin-3-yl)methyl)-N-methylethanamine], the pEC50 was < 5.00.

Take `CCOc1ccc2cc(CNCCc3ccc(Br)cc3)c(-c3cccnc3)nc2c1` [Example 45, 2-(4-Bromophenyl)-N-((7-ethoxy-2-(pyridin-3-yl)quinolin-3-yl)methyl)ethanamine]: the pEC50 was < 5.00.

For the compound `COc1ccc2cc(CN[C@H](C)c3ccc(C)cc3)c(-c3ccncc3)nc2c1` [Example 85, (R)—N-((7-Methoxy-2-(pyridin-4-yl)quinolin-3-yl)methyl)-1-p-tolylethanamine], the pEC50 is > 5.00.

With `COc1ccc2cc(CNCCc3c[nH]c4ccc(O)cc34)c(-c3ccncc3)nc2c1` [Example 93, 3-(2-((7-Methoxy-2-(pyridin-4-yl)quinolin-3-yl)methylamino)ethyl)-1H-indol-5-ol], the pEC50 is < 5.00.

Consider `COc1ccc2cc(CNCc3ccco3)c(-c3ccsc3)nc2c1` [Example 78, 1-(Furan-2-yl)-N-((7-methoxy-2-(thiophen-3-yl)quinolin-3-yl)methyl)methanamine], for which the pEC50 was > 5.00.

In the next assay the test system is mice fed high fat diet (HFD).
Assay: not given
To be noted: mice fed HFD containing 0.5% cholic acid vs HFD alone; cited from earlier work.
For `C[C@H](CCC(=O)O)[C@H]1CC[C@H]2[C@@H]3[C@H](O)C[C@@H]4C[C@H](O)CC[C@]4(C)[C@H]3C[C@H](O)[C@]12C` [cholic acid], the Food intake entry is “no difference between the two groups” and the Weight gain entry is recorded as “gained less weight than control mice on HFD alone”.
